Laboratory results taken from patent publication US20240279239A1, “COMPOUNDS AND METHODS FOR MODULATING SPLICING” (REMIX THERAPEUTICS INC., priority 2020, published 2024).
Where two headings read alike, the source gives them in different places.

How the values were obtained:
Assay type in all cases: cell-based
HTT [1] = test: RT-qPCR splicing assay for HTT mRNA isoforms (canonical junction CJ and alternative junction AJ); conditions: A673 or K562 cell line, 24 hours treatment
Method: (§1) Example 44: Exemplary splicing assay for monitoring expression levels of splice variants Compounds described herein were used to modulate RNA transcript abundance in cells. The expression of a target mRNA was measured by detecting the formation of an exon-exon junction in the canonical transcript (CJ). A compound mediated exon-inclusion event was detected by observing an increase in formation of a new junction with an alternative exon (AJ). Real-time qPCR assays were used to detect these splicing switches and interrogate the potency of various compounds towards different target genes. A high-throughput real time quantitative PCR (RT-qPCR) assay was developed to measure these two isoforms of the mRNA (CJ and AJ) for an exemplary gene, HTT, together with a control housekeeping gene, GAPDH or GUSB or PPIA, used for normalization. Briefly, the A673 or K562 cell line was treated with various compounds described herein (e.g., compounds of Formula (I)). After treatment, the levels of the HTT mRNA targets were determined from each sample of cell lysate by cDNA synthesis followed by qPCR.
(§2) The A673 cell line was cultured in DMEM with 10% FBS. Cells were diluted with full growth media and plated in a 96-well plate (15,000 cells in 100 µl media per well). The plate was incubated at 37° C. with 5% CO2 for 24 hours to allow cells to adhere. An 11-point 3-fold serial dilution of the compounds was made in DMSO then diluted in media in an intermediate plate. Compounds were transferred from the intermediate plate to the cell plate with the top dose at a final concentration of 10 uM in the well. Final DMSO concentration was kept at or below 0.25%. The cell plate was returned to the incubator at 37° C. with 5% CO2 for an additional 24 hours.
(§3) The K562 cell line was cultured in IMDM with 10% FBS. For K562, cells were diluted with full growth media and plated in either a 96-well plate (50,000 cells in 50 uL media per well) or a 384-well plate (8,000-40,000 cells in 45 uL media per well). An 11-point 3-fold serial dilution of the compounds were made in DMSO then diluted in media in an intermediate plate. Compound was transferred from the intermediate plate to the cell plate with the top dose at a final concentration of 10 uM in the well. Final DMSO concentration was kept at or below 0.25%. Final volume was 100 uL for 96-well plate and 50 uL for 384-well plate. The cell plate was then placed in an incubator at 37° C. with 5% CO2 for 24 hours.
(§4) The cells were then gently washed with 50 uL-100 uL cold PBS before proceeding to addition of lysis buffer. 30 uL-50 uL of room temperature lysis buffer with DNAse I (and optionally RNAsin) was added to each well. Cells were shaken/mixed thoroughly at room temperature for 5-10 minutes for lysis to take place and then 3 uL-5 uL of room temperature stop solution was added and wells were shaken/mixed again. After 2-5 minutes, the cell lysate plate was transferred to ice for RT-qPCR reaction setup. The lysates could also be frozen at ˜80° C. for later use.
(§5) In some cases, a direct lysis buffer was used. An appropriate volume of 3× lysis buffer (10 mM Tris, 150 mM NaCl, 1.5%-2.5% Igepal and 0.1-1 U/uL RNAsin, pH 7.4) was directly added to either K562 or A673 cells in media and mixed by pipetting 3 times. The plates were then incubated at room temperature with shaking/rocking for 20-50 minutes to allow for lysis to take place. After this time, the cell lysate plate was transferred to ice to set up for the RT-qPCR reactions. The lysates could also be frozen at −80° C. for later use.
(§6) To set up 10 uL RT-qPCR reactions, cell lysates were transferred to 384-well qPCR plates containing the master mix according to the table below. The plates were sealed, gently vortexed, and spun down before the run. The volumes were adjusted accordingly in some instances where the reaction was carried in 20 uL. The table below summarizes the components of the RT-qPCR reactions: […]

HTT [2] = test: RT-qPCR canonical junction panel assay, HTT; conditions: gene panel, read-out: HTT IC50 (decrease in CJ mRNA levels)
Method: as §1, §2, §3, §4, §5, §6

SMN2 = test: RT-qPCR canonical junction panel assay, SMN2; conditions: gene panel, read-out: SMN2 IC50 (decrease in CJ mRNA levels)
Method: as §1, §2, §3, §4, §5, §6

Target C = test: RT-qPCR canonical junction panel assay, Target C; conditions: gene panel, read-out: Target C IC50 (decrease in CJ mRNA levels)
Method: as §1, §2, §3, §4, §5, §6

[3] = decrease in CJ mRNA levels, read-out: HTT CJ AC50
[4] = increase in AJ mRNA, read-out: HTT AJ AC50

Structure (SMILES)	IC50 (HTT [2])	IC50 (SMN2)	IC50 (Target C)	AC50 (HTT [1]; [3])	AC50 (HTT [1]; [4])
Cc1cn2cc(-c3cc(=O)n4cc(N5CCNC6(CC6)C5)sc4n3)cc(F)c2n1 [Compound 207, 7-(8-fluoro-2-methylimidazo[1,2-α]pyridin-6-yl)-2-(4,7-diazaspiro[2.5]octan-7-yl)-5H-thiazolo[3,2-α]pyrimidin-5-one]	> 10 µM	0.1 to 1 µM	> 10 µM	> 10 µM	> 10 µM
Cc1cn2cc(-n3cnc4nc(N5CCNCC5)sc4c3=O)cc(C(F)(F)F)c2n1 [Compound 229, 6-(2-methyl-8-(trifluoromethyl)imidazo[1,2-α]pyridin-6-yl)-2-(piperazin-1-yl)thiazolo[4,5-d]pyrimidin-7(6H)-one]	> 10 µM	> 10 µM	> 10 µM	> 10 µM	> 10 µM
Cn1cc2cc(-n3cnc4nc(N5CCNCC5)sc4c3=O)ccc2n1 [Compound 225, 6-(2-methyl-2H-indazol-5-yl)-2-(piperazin-1-yl)thiazolo[4,5-d]pyrimidin-7(6H)-one]	> 10 µM	> 10 µM	> 10 µM	> 10 µM	> 10 µM
Cc1cn2cc(-c3cn4c(=O)cc(N5CCN(C)CC5)nc4s3)cc(F)c2n1 [Compound 184]	> 10 µM	1 to 10 µM	–	> 10 µM	> 10 µM
Cc1cn2cc(-c3nn4c(=O)cc(N5CCNC6(CC6)C5)nc4s3)cc(F)c2n1 [Compound 216, 2-(8-fluoro-2-methylimidazo[1,2-α]pyridin-6-yl)-7-(4,7-diazaspiro[2.5]octan-7-yl)-5H-[1,3,4]thiadiazolo[3,2-α]pyrimidin-5-one]	1 to 10 µM	1 to 10 µM	1 to 10 µM	1 to 10 µM	1 to 10 µM
Cc1cc(-c2cc(=O)n3nc(N4CCN(C)CC4)sc3n2)cc2cn(C)nc12 [Compound 157]	> 10 µM	> 10 µM	> 10 µM	> 10 µM	> 10 µM
Cc1cn2nc(-c3cc4ncn(C5CCN(C)CC5)c(=O)c4s3)cc(C)c2n1 [Compound 239, 6-(2,8-dimethylimidazo[1,2-b]pyridazin-6-yl)-3-(1-methylpiperidin-4-yl)thieno[3,2-d]pyrimidin-4(3H)-one]	1 to 10 µM	< 0.1 µM	> 10 µM	1 to 10 µM	1 to 10 µM
Cc1cc(-c2nn3c(=O)cc(N4CCN(C)CC4)nc3s2)cc2cn(C)nc12 [Compound 210, 2-(2,7-dimethyl-2H-indazol-5-yl)-7-(4-methylpiperazin-1-yl)-5H-[1,3,4]thiadiazolo[3,2-α]pyrimidin-5-one]	1 to 10 µM	1 to 10 µM	1 to 10 µM	1 to 10 µM	1 to 10 µM
Cc1cn2cc(-n3cnc4nc(N5CCN(C)CC5)sc4c3=O)cc(C(F)(F)F)c2n1 [Compound 230, 6-(2-methyl-8-(trifluoromethyl)imidazo[1,2-α]pyridin-6-yl)-2-(4-methylpiperazin-1-yl)thiazolo[4,5-d]pyrimidin-7(6H)-one]	> 10 µM	> 10 µM	> 10 µM	> 10 µM	> 10 µM
Cc1cc(-c2cc(=O)n3cc(N4CCN(C)CC4)sc3n2)cc2cn(C)nc12 [Compound 109, 7-(2,7-dimethyl-2H-indazol-5-yl)-2-(4-methylpiperazin-1-yl)-5H-thiazolo[3,2-α]pyrimidin-5-one]	> 10 µM	> 10 µM	> 10 µM	> 10 µM	> 10 µM
Cc1cn2cc(-c3nn4c(=O)cc(N5CCN(C)C6(CC6)C5)nc4s3)cc(F)c2n1 [Compound 218, 2-(8-fluoro-2-methylimidazo[1,2-α]pyridin-6-yl)-7-(4-methyl-4,7-diazaspiro[2.5]octan-7-yl)-5H-[1,3,4]thiadiazolo[3,2-α]pyrimidin-5-one]	1 to 10 µM	1 to 10 µM	1 to 10 µM	1 to 10 µM	1 to 10 µM
Cc1cc(-c2cn3c(=O)cc(N4CCN(C)CC4)nc3s2)cc2cn(C)nc12 [Compound 183, 2-(2,7-dimethyl-2H-indazol-5-yl)-7-(4-methylpiperazin-1-yl)-5H-thiazolo[3,2-α]pyrimidin-5-one]	> 10 µM	1 to 10 µM	–	> 10 µM	> 10 µM

Further lines, with some results ahead:

IC50 (HTT [2])	IC50 (SMN2)	IC50 (Target C)	Structure (SMILES)	AC50 (HTT [1]; [3])	AC50 (HTT [1]; [4])
1 to 10 µM	0.1 to 1 µM	1 to 10 µM	Cc1cn2nc(-c3cc(=O)n4cc(N5CCNC6(CC6)C5)sc4n3)cc(C)c2n1 [Compound 211, 7-(2,8-dimethylimidazo[1,2-b]pyridazin-6-yl)-2-(4,7-diazaspiro[2.5]octan-7-yl)-5H-thiazolo[3,2-α]pyrimidin-5-one]	1 to 10 µM	1 to 10 µM
0.1 to 1 µM	< 0.1 µM	1 to 10 µM	Cc1cc(-c2nc3ncn(C4CCN(C)CC4)c(=O)c3s2)cc2cn(C)nc12 [Compound 234, 2-(2,7-dimethyl-2H-indazol-5-yl)-6-(1-methylpiperidin-4-yl)thiazolo[4,5-d]pyrimidin-7(6H)-one]	0.1 to 1 µM	0.1 to 1 µM
1 to 10 µM	1 to 10 µM	–	CN1CCN(c2nc3ncn(-c4ccc5nn(C)cc5c4)c(=O)c3s2)CC1 [Compound 182, 6-(2-methyl-2H-indazol-5-yl)-2-(4-methylpiperazin-1-yl)thiazolo[4,5-d]pyrimidin-7(6H)-one]	1 to 10 µM	1 to 10 µM
1 to 10 µM	1 to 10 µM	1 to 10 µM	Cc1cn2nc(-c3cn4c(=O)cc(N5CCNC6(CC6)C5)nc4s3)cc(C)c2n1 [Compound 212, 2-(2,8-dimethylimidazo[1,2-b]pyridazin-6-yl)-7-(4,7-diazaspiro[2.5]octan-7-yl)-5H-thiazolo[3,2-α]pyrimidin-5-one]	1 to 10 µM	1 to 10 µM
< 0.1 µM	< 0.1 µM	0.1 to 1 µM	Cc1cn2cc(-c3cc4ncn(C5CCNCC5)c(=O)c4s3)cc(F)c2n1 [Compound 235, 6-(8-fluoro-2-methylimidazo[1,2-α]pyridin-6-yl)-3-(piperidin-4-yl)thieno[3,2-d]pyrimidin-4(3H)-one]	< 0.1 µM	< 0.1 µM
0.1 to 1 µM	0.1 to 1 µM	0.1 to 1 µM	Cc1cn2cc(-n3cnc4nc(N5CCNCC5)sc4c3=O)cc(F)c2n1 [Compound 226, 6-(8-fluoro-2-methylimidazo[1,2-α]pyridin-6-yl)-2-(piperazin-1-yl)thiazolo[4,5-d]pyrimidin-7(6H)-one]	0.1 to 1 µM	0.1 to 1 µM
0.1 to 1 µM	< 0.1 µM	1 to 10 µM	Cc1cn2nc(-c3cc4ncn(C5CCNCC5)c(=O)c4s3)cc(C)c2n1 [Compound 238, 6-(2,8-dimethylimidazo[1,2-b]pyridazin-6-yl)-3-(piperidin-4-yl)thieno[3,2-d]pyrimidin-4(3H)-one]	0.1 to 1 µM	0.1 to 1 µM
